Legend:
Experiment in all cases: relative viability (nuclei count vs DMSO), 5 days (fraction); higher = more cells survive
Adavosertib + Decitabine = compound: C=CCn1c(=O)c2cnc(Nc3ccc(N4CCN(C)CC4)cc3)nc2n1-c1cccc(C(C)(C)O)n1 [Adavosertib] + Nc1ncn([C@H]2C[C@H](O)[C@@H](CO)O2)c(=O)n1 [Decitabine] (partner 2 µM)
Summary of the method: (§1)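 Nuclei were stained with Hoechst during a one-step fixation (final 0.05% Triton X-100, 1% formaldehyde, 1 ug/ml Hoechst) carried out 5 days after dosing, then counted on 4× images. The cells, lung cancer lines in 1536-well plates, had been dosed by pin tool the day after seeding with one drug alone or a fixed anchor-drug dose plus five library-drug doses (not always all listed) in √10 steps. Relative viability is the nuclei count in treated wells divided by that in vehicle wells, and each value is the median of duplicate plates.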

Adavosertib + OSI-027 = compound: C=CCn1c(=O)c2cnc(Nc3ccc(N4CCN(C)CC4)cc3)nc2n1-c1cccc(C(C)(C)O)n1 [Adavosertib] + COc1cccc2cc(-c3nc([C@H]4CC[C@H](C(=O)O)CC4)n4ncnc(N)c34)[nH]c12 [OSI-027] (partner 0.5 µM)
Summary of the method: as §1

Adavosertib + Crizotinib = compound: C=CCn1c(=O)c2cnc(Nc3ccc(N4CCN(C)CC4)cc3)nc2n1-c1cccc(C(C)(C)O)n1 [Adavosertib] + C[C@@H](Oc1cc(-c2cnn(C3CCNCC3)c2)cnc1N)c1c(Cl)ccc(F)c1Cl [Crizotinib] (partner 1 µM)
Summary of the method: as §1

Nelarabine + OSI-027 = compound: COc1nc(N)nc2c1ncn2[C@@H]1O[C@H](CO)[C@@H](O)[C@@H]1O [Nelarabine] + COc1cccc2cc(-c3nc([C@H]4CC[C@H](C(=O)O)CC4)n4ncnc(N)c34)[nH]c12 [OSI-027] (partner 0.5 µM)
Summary of the method: as §1

Row | Cell Line | relative viability (Adavosertib + Decitabine; first compound 0.01 µM) | relative viability (Adavosertib + Decitabine; first compound 0.03162 µM) | relative viability (Adavosertib + Decitabine; first compound 0.1 µM) | relative viability (Adavosertib + Decitabine; first compound 0.3162 µM) | relative viability (Adavosertib + OSI-027; first compound 0.01 µM) | relative viability (Adavosertib + OSI-027; first compound 0.03162 µM) | relative viability (Adavosertib + OSI-027; first compound 0.1 µM) | relative viability (Adavosertib + OSI-027; first compound 0.3162 µM) | relative viability (Adavosertib + Crizotinib; first compound 0.01 µM) | relative viability (Adavosertib + Crizotinib; first compound 0.03162 µM) | relative viability (Adavosertib + Crizotinib; first compound 0.1 µM) | relative viability (Adavosertib + Crizotinib; first compound 0.3162 µM) | relative viability (Nelarabine + OSI-027; first compound 0.01 µM) | relative viability (Nelarabine + OSI-027; first compound 0.03162 µM) | relative viability (Nelarabine + OSI-027; first compound 0.1 µM) | relative viability (Nelarabine + OSI-027; first compound 0.3162 µM) | relative viability (Nelarabine + OSI-027; first compound 1 µM)
1 | NCI-H1734 | 0.501 | 0.511 | 0.474 | 0.363 | 0.608 | 0.638 | 0.604 | 0.377 | 0.817 | 0.772 | 0.82 | 0.695 | 0.759 | 0.609 | 0.547 | 0.582 | 0.619
2 | HCC-44 | 0.935 | 0.935 | 0.975 | 1 | 0.525 | 0.484 | 0.538 | 0.578 | 0.827 | 0.856 | 0.946 | 0.949 | 0.568 | 0.484 | 0.607 | 0.518 | 0.52
3 | HOP-62 | 0.27 | 0.239 | 0.229 | 0.223 | 0.92 | 0.907 | 0.852 | 0.85 | 0.986 | 0.905 | 1.04 | 0.955 | 0.981 | 0.866 | 0.971 | 0.941 | 0.838
4 | NCI-H3122 | 0.41 | 0.49 | 0.484 | 0.494 | 0.972 | 0.914 | 1.07 | 1.06 | 0.287 | 0.241 | 0.294 | 0.271 | 1.34 | 1.01 | – | 1.11 | 1.03
5 | NCI-H2405 | – | 0.761 | 0.794 | 0.698 | 0.668 | 0.667 | 0.669 | 0.628 | 0.804 | 0.875 | 0.872 | 0.879 | 0.722 | 0.66 | 0.471 | 0.632 | 0.624
6 | UMC-11 | 0.646 | 0.606 | 0.608 | 0.654 | 0.48 | 0.442 | 0.432 | 0.444 | 0.63 | 0.588 | 0.739 | 0.623 | 0.655 | 0.569 | 0.586 | 0.476 | 0.503
7 | COR-L 105 | 0.691 | 0.6 | 0.618 | 0.651 | 0.598 | 0.677 | 0.558 | 0.503 | 0.746 | 0.836 | 0.795 | 0.747 | 0.781 | 0.82 | 0.531 | 0.616 | 0.715
8 | NCI-H2085 | 0.547 | 0.504 | 0.574 | 0.47 | 0.857 | 0.808 | 0.689 | 0.87 | 0.748 | 0.866 | 0.946 | 0.85 | 0.945 | 0.849 | 0.664 | 0.797 | 0.748
9 | IA-LM | – | – | – | – | – | – | – | – | 0.868 | – | 1.02 | 0.784 | – | – | – | – | –
10 | NCI-H1792 | 0.507 | 0.596 | 0.645 | 0.669 | – | 0.701 | 1.12 | 0.751 | 0.978 | 0.881 | 1.05 | 1.05 | – | 0.773 | 0.75 | 0.904 | 1.13
11 | LK-2 | 0.254 | 0.346 | 0.349 | 0.412 | 0.17 | 0.208 | 0.207 | 0.216 | 0.278 | 0.249 | 0.188 | 0.224 | 0.167 | – | 0.159 | 0.178 | 0.162
12 | NCI-H2009 | 0.362 | 0.419 | 0.414 | 0.37 | 0.698 | 0.644 | 0.651 | 0.366 | 0.995 | 1.05 | 1.03 | 1.04 | 0.767 | 0.643 | 0.546 | 0.696 | 0.71
13 | BEN | 0.684 | 0.69 | 0.768 | 0.783 | 0.293 | 0.333 | 0.297 | 0.273 | 0.985 | 0.998 | 0.825 | 0.873 | 0.328 | 0.293 | 0.541 | 0.296 | 0.301
14 | NCI-H1703 | – | – | – | – | – | – | – | – | 0.853 | 0.712 | 0.978 | 0.103 | – | – | – | – | –
15 | Calu-6 | – | – | – | – | – | – | – | – | 0.777 | 0.746 | 0.916 | 0.343 | – | – | – | – | –
16 | NCI-H1648 | 0.491 | 0.527 | 0.448 | 0.422 | 0.273 | 0.293 | 0.248 | 0.251 | – | – | – | – | 0.237 | 0.282 | 0.264 | 0.256 | 0.281
17 | NCI-H1623 | – | – | – | – | 0.427 | 0.446 | 0.389 | 0.431 | – | – | – | – | 0.436 | 0.374 | 0.392 | 0.379 | 0.391
18 | NCI-H1563 | – | – | – | – | 0.737 | 0.812 | 0.766 | 0.757 | 0.837 | 0.942 | 0.936 | 0.924 | 0.847 | 0.722 | 0.785 | 0.739 | 0.863
19 | NCI-H522 | 0.691 | 0.692 | 0.776 | 0.745 | 0.809 | 0.784 | 0.718 | 0.659 | – | – | – | – | 0.758 | 0.76 | 0.713 | 0.722 | 0.687
20 | NCI-H2342 | 0.72 | 0.768 | 0.755 | 0.932 | 0.575 | 0.566 | 0.676 | 0.616 | – | – | – | – | 0.734 | 0.533 | 0.564 | 0.75 | 0.626
21 | NCI-H2228 | – | – | – | – | 0.509 | 0.651 | 0.618 | 0.142 | 0.391 | 0.458 | 0.615 | 0.3 | 0.949 | 0.635 | – | 0.784 | 0.563
22 | A549 | 0.28 | 0.257 | 0.298 | 0.291 | – | – | – | – | 0.733 | 0.807 | 0.891 | 0.702 | – | – | – | – | –
23 | CAL-12T | – | – | – | – | 0.568 | 0.711 | 0.582 | 0.235 | 0.935 | 0.592 | 0.776 | 0.509 | 0.616 | 0.874 | 0.687 | 0.635 | 0.583
24 | NCI-H1793 | 0.37 | 0.477 | 0.521 | 0.358 | 0.282 | 0.289 | 0.26 | 0.277 | – | – | – | – | 0.327 | 0.238 | 0.247 | 0.372 | 0.326

— the supplement of paper PMC10307832
